Data taken from patent US6346610B1, “Process for preparing antifungal V-28-3M” (Ajinomoto Co., Ltd., priority 1997, dated 2002).
Like-named read-outs stand apart in the source and are kept apart here.

Experiments:
[1] = antimycotic activity of V-28-3M; settings: V-28-3M obtained by Example 5, compared with V-28-3M described in JP-A-3-81225
[2] = background statement, JP-A-63-218686 and JP-A-3-81225; cited from earlier work
[3] = system: animal cells; settings: background statement, JP-A-63-218686 and JP-A-3-81225; cited from earlier work

COC(=O)C1C(O)CC2(O)CC(O)CC(O)CC(O)CC(O)CC(=O)CC(O)CC(=O)OC(C(C)CCC(O)CC(=O)c3ccc(N)cc3)C(C)\C=C/C=C\C=C\C=C\C=C\C=C\C=C\C(OC3OC(C)C(O)C(N)C3O)CC1O2 (stereo not drawn) [Example V-28-3M, V-28-3M]
antimycotic activity [1]: the same result was also obtained
antimycotic activity [2]: high
toxicity for animal cells [3]: low
